Laboratory results published in US4681871A, “Pharmacologically active peptides” (priority 1979, dated 1987).
Ends that are not written are not given here. Peptide text beside a SMILES is read from it.

How the values were obtained:
[1] = tested on: longitudinal muscle plexusmyentericus preparation of guinea pig ileum; experiment: opiate-like activity on electrically stimulated guinea pig ileum preparation; format: cell-based; conditions: guinea pig intestine preparation; naloxon-reversible restriction of contractions
Pronase E (Merck) = experiment: resistance against proteases (Pronase E incubation, then opiate test); format: in vitro ADME; conditions: 0.02 mg Pronase E, tris-buffer pH 8, 37° C., 1 to 4 hours; compared with control without enzyme
Description: As proof of the resistance against proteases we would like to cite an example: 0.3 mg β-casomorphin-7 was incubated in 0.6 ml tris-buffer pH 8 with 0.02 mg Pronase E (Merck) at 37° C. for 1 to 4 hours. After the end of the incubation, the mixture, for the purpose of destroying the Pronase, was heated at 95° C. for 15 minutes.

| Compound | opiate-like activity [1] | loss of opiate activity after protease incubation (Pronase E (Merck)) |
| --- | --- | --- |
| COC(=O)CNC(=O)[C@@H]1CCCN1C(=O)[C@H](Cc1ccccc1)NC(=O)[C@@H]1CCCN1 [end product 4b, Pro-Phe-Pro-Gly-metester] (H-PFPG-OMe) | did not result in any opiate-like activity | – |
| YPFPGPI [β-casomorphin-7, Tyr-Pro-Phe-Pro-Gly-Pro-Ile] | – | did not result in any loss of opiate activity |
| COC(=O)CNC(=O)[C@@H]1CCCN1C(=O)[C@H](Cc1ccccc1)NC(=O)[C@@H]1CCCN1C(=O)[C@@H](N)Cc1ccc(O)cc1 [Tyr-Pro-Phe-Pro-Gly-methyl ester] (H-YPFPG-OMe) | strong specific opiate-like activity | – |
| casein | neither the casein itself nor its chloroform/methanol (65/35, vol/vol) extracts, shows a pharmacological, in this case an opiate-like, activity | – |
| methionine-enkephalin [reference compound] | – | completely lost the opiate activity |
